The values that follow are results of earlier work, collected in patent US20120302647A1, “SYNTHESIS OF MAGNOLOL AND ITS ANALOGUE COMPOUNDS” (INDIAN INSTITUTE OF CHEMICAL TECHNOLOGY, priority 2010, published 2012).

For data set [1] the following is noted: times greater than α-tocopherol.
Data set [2] deals with cortical neuron-astrocyte mixed cultures. The conditions noted are these: chemical hypoxia by KCN.

For `C=CCc1ccc(O)c(-c2cc(CC=C)ccc2O)c1` [magnolol, 5,5′-diallylbiphenyl-2,2′-diol], the “antioxidant activity relative to α-tocopherol” value in data set [1] is reported as 1000 times. For the same molecule, the “protection of the myocardium against infarction and reperfusion injury” value in the data set with myocardium is “protecting the myocardium against infarction and reperfusion injury”. For the same molecule, the “protection of neurons against chemical hypoxia” value in data set [2] is reported as “protects neurons against chemical hypoxia by KCN”.
